Source: patent US20240294572A1, “Antimicrobial Peptides” (priority 2021, published 2024)
Values after ≈ are worked out from the molar mass of the structure shown. Residues, ends and D or L forms follow the SMILES beside them. No end group written: not given here. *: point of attachment. Octanoyl = CCCCCCCC(=O)*

Legend:
[1] = tested on: HaCaT cells; format: cell-based, human
Protocol: Peptides were assessed for potential cytotoxicity using HaCaT cells (Addexbio Technologies, CA). Briefly, cells were seeded at a density of 1×10^4 per well in a tissue culture 96-well plate. DMEM was supplemented with 10% fetal bovine serum (FBS) and incubated at 37° C. in a 5% CO2 atmosphere for 24 hours. Culture medium was aspirated and replaced with fresh serum free media. Cells were exposed to different concentrations of peptides for 1 hour at 37° C. in a 5% CO2 atmosphere. Post-incubation, the cells were washed and incubated with 100 μL of DMEM media containing 20 μL of MTS reagent for 2 hours at 37° C. Absorbance was read at 492 nm using a ChroMate® microplate reader (Awareness Technology, FL).

[2] = tested on: S. aureus Newman; format: cell-based
Protocol: (§1) The antibacterial activity of peptides was evaluated using a standard broth microdilution protocol (Clinical Laboratories Standards Institute (CLSI): M07-A10. Methods for Dilution Antimicrobial Susceptibility Tests for Bacteria that grow aerobically; Approved Standard, Tenth Edition, 2015) with minor modifications as described (Mishra, et al. (2019) Proc. Natl. Acad. Sci., 116:13517-13522). In brief, peptides (10 μL per well) with 2-fold dilutions were made in 96-well polystyrene microplates. Subsequently, the logarithmic phase bacterial cultures (i.e., optical density at 600 nm ˜0.5) were diluted to 0.001 OD and aliquoted to 90 μL per well. The plates were incubated overnight at 37°° C. Bacterial controls were treated with water, and the wells containing only the TSB media were used as blank. Positive controls included the parent peptide LL-37 as well as KR12. Post incubation, the plates were read at 630 nm using ChroMate® 4300 Microplate Reader (Awareness Technology, FL).

[3] = tested on: S. aureus Mu50; format: cell-based
Protocol: as §1

[4] = tested on: S. aureus USA400; format: cell-based
Protocol: as §1

[5] = tested on: clinical strains of S. aureus, including USA200, USA400, Newman, and Mu50; format: cell-based
Protocol: as §1

[6] = tested on: S. aureus USA200; format: cell-based
Protocol: as §1

[7] = tested on: S. aureus USA300 LAC; format: cell-based
Protocol: as §1
To study the influence of medium conditions on the antimicrobial activity of peptides against S. aureus USA300, different pH, sodium chloride (NaCl), human sera were included into the antibacterial assays. Control experiments in TSB without any additions (pH 7.4) were set up in the same manner. In addition, antimicrobial activities of human LL-37, KR12, and C10-KR8d were compared in 10%, 50%, and 100% TSB as well as in TSB and MHB using E. coli ATCC 25922 and S. aureus USA300 LAC.

[8] = tested on: human red blood cells (hRBCs); format: cell-based; conditions: red cells of human, 1 h
Protocol: Hemolytic assays of peptides were performed as described (Lakshmaiah, et al. (2020) Proc. Natl. Acad. Sci., 117:19446-19454). Briefly, human red blood cells (hRBCs) were obtained from UNMC Blood Bank. The cells were washed 3× with isotonic saline (0.9% NaCl) and diluted to 2% (v/v). Peptides at various concentrations were added to the 2% blood cells and incubated at 37° C. for 1 hour. Post-incubation, the plates were spun at 2000 rpm for 10 minutes; aliquots of the supernatant were carefully transferred to a fresh 96-well microplate. The amount of cells lysed is proportional to the hemoglobin released and was measured at 545 nm using a ChroMate® microplate reader (Awareness Technology, FL). The percent lysis was calculated by assuming 100% release when human blood cells were treated with 1% Triton™ X-100, and 0% release when incubated with PBS. The peptide concentration that caused 50% lysis of hRBCs is defined as HC50. The cell selectivity index (CSI) was calculated as the ratio between HC50 and the MIC of the corresponding peptide against MRSA.

[9] = tested on: Klebsiella pneumonia ATCC 13883; test: Antibacterial broth microdilution MIC; format: cell-based
Protocol: as §1

[10] = target: T1, Apolipoprotein C-III (P33622) (Mus musculus, UniProt P33622); test: Mass spectrometry of mouse plasma proteins bound to bead-immobilized peptide; format: binding; conditions: peptide on beads, 5% mouse plasma, 18 hours
T1 construct: incubated with 5% mouse plasma; from tissue; host or cells: mouse plasma (5%)
T1 sequence (P33622 21-99): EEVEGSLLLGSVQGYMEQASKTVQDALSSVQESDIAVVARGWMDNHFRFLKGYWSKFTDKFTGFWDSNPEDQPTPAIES
Protocol: (§2) Dynabeads M-370 amine (2×10^9 beads/mL, 50 μL; Thermo Fisher Scientific) were washed 3 times in sterile PBS (1 mL; GIBCO) and reacted with a bifunctional SM(PEG)4 cross-linker (5 mg/mL in DMSO) containing N-hydroxysuccinimide (NHS) ester and maleimide functional groups. A stable covalent bond between the amino group of beads and the NHS ester of the cross-linker was formed in PBS at pH 7.2 at room temperature for 24 hours with shaking at 80 rpm. The beads were then washed six times with PBS to remove nonreacted cross-linker. Next, peptide C10-KR8 (with a cysteine at the N-terminus) at 5 mg/mL was reacted with the free maleimide group in PBS for 24 hours at room temperature with shaking at 80 rpm. Another round of washing was conducted to remove the nonreacted peptides. Both the L-and D-forms of the peptide were coupled in the same manner. A portion of the beads without peptide coupling was saved as a control.
(§3) For serum binding experiments, the beads were resuspended in 500 μL of PBS; 200-μL aliquots of the coated and control dynabead were incubated with 5% mouse plasma for 18 hours at 37° C. After binding, the beads were washed six times with PBS to remove unbound proteins. Finally, the beads were suspended in 50 μL of PBS for mass spectrophotometric analysis to identify peptide-binding partners.
(§4) The samples were reduced by 10 mM dithiothreitol (DTT) and incubated for 30 minutes at 56° C. and back to room temperature. A final concentration of 50 mM iodoacetamide was added to alkylate free cysteines followed by further incubation for 20 min in the dark. Bound proteins were enzymatically digested by trypsin (4 μL of 0.5 μg/mL) overnight. A 60 […] portion was transferred to a new Eppendorf® tube and dried for 2 hours. The samples were then dissolved in 20 μL of 2% acetonitrile with 0.1% formic acid before being loaded to Q-tip columns (Pepclean, C18 spin column). Column was activated by pipetting in and out (4× times), 10 μL of 70% acetonitrile with 0.1% formic acid, and equilibrating with the same volume of 2% acetonitrile with 0.1% formic acid. Binding of the samples was done by mixing more than 10 × times, followed by washing in the same buffer (2% acetonitrile with 0.1% formic acid). The bound peptides were then eluted with 20 μL of 70% acetonitrile with 0.1% formic acid. Samples were subjected to LC-MS analysis after being suspended in the desired buffer.
(§5) Extracted peptides were resuspended in 2% acetonitrile (ACN) and 0.1% formic acid (FA) and loaded onto trap column Acclaim™ PepMap™ 100 75 μm×2 cm C18 LC Columns (Thermo Scientific) at a flow rate of 4 μL/minute. These were then separated with a Thermo RSLC UltiMate™ 3000 on a Thermo Easy-Spray PepMap™ M RSLC C18 75 μm×50 cm C-18 2 μm column (Thermo Scientific) with a step gradient of 4-25% solvent B (0.1% FA in 80% ACN) from 10 to 37 minutes and 25-45% solvent B for 37-46 minutes at 300 nL/min and 50° C. with a 70 minute total run time. Eluted peptides were analyzed by a Thermo Orbitrap Fusion™ Lumos™ Tribrid™ (Thermo Scientific) mass spectrometer in a data dependent acquisition mode. A survey full scan MS (from m/z 350-1800) was acquired in the orbitrap with a resolution of 120000. The AGC target for MS1 was set as 4×10^5 and the ion filling time set as 100 ms. The most intense ions with charge state 2-6 were isolated in 3 second cycle and fragmented using HCD fragmentation with 40% normalized collision energy and detected at a mass resolution of 30000 at 200 m/z. The AGC target for MS/MS was set as 5×10^4 and ion filling time set 60 ms dynamic exclusion was set for 30 seconds with a 10 ppm mass window. Protein identification was performed by searching MS/MS data against the Swiss-Prot mouse protein database. The search was set up for full tryptic peptides with a maximum of two missed cleavage sites. Acetylation of protein N-terminus and oxidized methionine were included as variable modifications, and carbamidomethylation of cysteine was set as fixed modification. […]

[11] = target: T2, Apolipoprotein A-I (Q00623) (Mus musculus, UniProt Q00623); test: as above; format: binding; conditions: peptide on beads, 5% mouse plasma, 18 hours
T2 construct: incubated with 5% mouse plasma; from tissue; host or cells: mouse plasma (5%)
T2 sequence (Q00623 19-264): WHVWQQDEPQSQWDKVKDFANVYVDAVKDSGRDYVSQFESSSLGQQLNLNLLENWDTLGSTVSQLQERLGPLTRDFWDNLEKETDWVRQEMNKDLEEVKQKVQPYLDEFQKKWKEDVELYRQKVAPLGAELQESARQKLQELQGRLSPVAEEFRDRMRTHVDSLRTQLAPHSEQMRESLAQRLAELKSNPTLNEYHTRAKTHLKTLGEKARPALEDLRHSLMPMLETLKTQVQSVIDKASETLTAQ
Protocol: as §2, §3, §4, §5

[12] = target: T3, Serum albumin (P07724) (Mus musculus, UniProt P07724); test: as above; format: binding; conditions: peptide on beads, 5% mouse plasma, 18 hours
T3 construct: incubated with 5% mouse plasma; from tissue; host or cells: mouse plasma (5%)
T3 sequence (P07724 25-608): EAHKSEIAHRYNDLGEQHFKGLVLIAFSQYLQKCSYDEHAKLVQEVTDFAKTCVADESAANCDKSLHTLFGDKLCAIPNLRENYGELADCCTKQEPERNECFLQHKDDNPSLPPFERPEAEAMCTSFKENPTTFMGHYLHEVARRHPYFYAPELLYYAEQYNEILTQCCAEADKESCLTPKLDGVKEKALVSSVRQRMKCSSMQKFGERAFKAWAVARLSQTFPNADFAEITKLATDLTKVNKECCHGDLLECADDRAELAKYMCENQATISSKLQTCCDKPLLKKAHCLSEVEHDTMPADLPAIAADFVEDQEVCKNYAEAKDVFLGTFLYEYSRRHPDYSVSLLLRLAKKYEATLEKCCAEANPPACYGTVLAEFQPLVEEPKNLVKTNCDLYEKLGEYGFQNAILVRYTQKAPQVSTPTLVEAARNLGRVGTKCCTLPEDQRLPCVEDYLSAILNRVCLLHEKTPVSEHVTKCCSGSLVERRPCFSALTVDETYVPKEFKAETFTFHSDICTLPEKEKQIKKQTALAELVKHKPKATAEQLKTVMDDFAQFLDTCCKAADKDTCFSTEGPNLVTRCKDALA
Protocol: as §2, §3, §4, §5

[13] = target: T4, Apolipoprotein A-IV (P06728) (Mus musculus, UniProt P06728); test: as above; format: binding; conditions: peptide on beads, 5% mouse plasma, 18 hours
T4 construct: incubated with 5% mouse plasma; from tissue; host or cells: mouse plasma (5%)
T4 sequence (P06728 21-395): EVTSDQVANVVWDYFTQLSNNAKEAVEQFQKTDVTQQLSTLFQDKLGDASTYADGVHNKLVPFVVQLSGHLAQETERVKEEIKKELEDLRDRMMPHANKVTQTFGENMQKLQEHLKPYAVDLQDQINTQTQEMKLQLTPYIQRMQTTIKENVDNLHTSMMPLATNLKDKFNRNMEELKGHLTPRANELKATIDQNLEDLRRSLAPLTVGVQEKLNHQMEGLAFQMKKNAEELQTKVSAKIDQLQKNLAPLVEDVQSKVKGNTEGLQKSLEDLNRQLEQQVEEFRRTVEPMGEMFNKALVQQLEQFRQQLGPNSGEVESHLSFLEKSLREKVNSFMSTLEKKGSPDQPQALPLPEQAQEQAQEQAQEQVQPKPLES
Protocol: as §2, §3, §4, §5

[14] = target: T5, Apolipoprotein A-II (P09813) (Mus musculus, UniProt P09813); test: as above; format: binding; conditions: peptide on beads, 5% mouse plasma, 18 hours
T5 construct: incubated with 5% mouse plasma; from tissue; host or cells: mouse plasma (5%)
T5 sequence (P09813 19-102): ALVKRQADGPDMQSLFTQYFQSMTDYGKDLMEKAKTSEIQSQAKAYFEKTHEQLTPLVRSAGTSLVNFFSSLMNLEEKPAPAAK
Protocol: as §2, §3, §4, §5

[15] = target: T6, Apolipoprotein C-I (P34928) (Mus musculus, UniProt P34928); test: as above; format: binding; conditions: peptide on beads, 5% mouse plasma, 18 hours
T6 construct: incubated with 5% mouse plasma; from tissue; host or cells: mouse plasma (5%)
T6 sequence (P34928 27-88): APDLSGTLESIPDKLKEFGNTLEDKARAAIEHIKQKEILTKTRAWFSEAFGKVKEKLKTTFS
Protocol: as §2, §3, §4, §5

[16] = target: T7, Apolipoprotein E (P08226) (Mus musculus, UniProt P08226); test: as above; format: binding; conditions: peptide on beads, 5% mouse plasma, 18 hours
T7 construct: incubated with 5% mouse plasma; from tissue; host or cells: mouse plasma (5%)
T7 sequence (P08226 19-311): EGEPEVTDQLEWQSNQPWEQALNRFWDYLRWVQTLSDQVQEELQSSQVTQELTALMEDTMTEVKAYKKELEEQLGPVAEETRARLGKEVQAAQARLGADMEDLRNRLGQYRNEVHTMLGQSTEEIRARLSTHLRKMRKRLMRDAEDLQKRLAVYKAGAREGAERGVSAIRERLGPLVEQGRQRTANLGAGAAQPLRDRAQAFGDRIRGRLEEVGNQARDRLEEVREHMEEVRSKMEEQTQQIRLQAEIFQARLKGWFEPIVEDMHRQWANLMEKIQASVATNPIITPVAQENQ
Protocol: as §2, §3, §4, §5

| Molecule | relative toxicity to HaCaT cells [1] | Minimal inhibitory concentration, Newman [2] [µM] | Minimal inhibitory concentration, Mu50 [3] [µM] | Minimal inhibitory concentration, USA400 [4] [µM] | MIC against clinical strains of S. aureus [5] [µM] | Minimal inhibitory concentration, USA200 [6] [µM] | MIC (μM) SA ([7]; USA300) [µM] | Minimal inhibitory concentration (MIC), pH = 6.8 ([7]; USA300, pH 6.8) [μM] | HC50 [8] [µM] | MIC (μM) KP [9] [µM] | Intensity of bound Apolipoprotein C-III [10] | Intensity of bound Apolipoprotein A-I [11] | Intensity of bound Serum albumin [12] | Intensity of bound Apolipoprotein A-IV [13] | Intensity of bound Apolipoprotein A-II [14] | Intensity of bound Apolipoprotein C-I [15] | Intensity of bound Apolipoprotein E [16] |
| --- | --- | --- | --- | --- | --- | --- | --- | --- | --- | --- | --- | --- | --- | --- | --- | --- | --- |
| CCCCCCCC(=O)N[C@@H](CCCCN)C(=O)N[C@@H](CCCNC(=N)N)C(=O)N[C@H](C(=O)N[C@@H](Cc1c[nH]c2ccccc12)C(=O)N[C@@H](CCC(N)=O)C(=O)N[C@@H](CCCNC(=N)N)C(=O)N[C@H](C(=O)N[C@@H](CCCCN)C(=O)N[C@@H](CC(=O)O)C(=O)N[C@@H](Cc1ccccc1)C(N)=O)[C@@H](C)CC)[C@@H](C)CC [Peptide C8-KR10] (Octanoyl-KRIWQRIKDF-NH2) | slightly less toxic than C8-KR10d | 6.2 (≈ 9.39 µg/mL) | 6.2 (≈ 9.39 µg/mL) | 3.1 (≈ 4.7 µg/mL) | 1.6 to 6.2 | 6.2 (≈ 9.39 µg/mL) | 3.1 to 6.2 | 12.5 | 250 | 25 (≈ 37.9 µg/mL) | – | – | – | – | – | – | – |
| C10-KR8 + linker: C10-KR8 with a cysteine, covalently attached via SM(PEG)4 cross-linker to Dynabeads M-370 amine (CKRIWQRIK; not fully specified (residue 1, N-terminus, C-terminus); also: added N-terminal Cys coupled via SM(PEG)4 to Dynabeads M-370 amine) | – | – | – | – | – | – | – | – | – | – | 2.02E+08 | 4.29E+09 | 3.72E+10 | 3.21E+08 | 3.65E+05 | 4.35E+08 | 1.68E+07 |
